Laboratory results from patent US10022395B2 (UNIWERSYTET LÓDZKI, priority 2012, dated 2018).
Where “and” joins values, the source holds several entries; their conditions need not be identical. Equal entries are not always repeated.

Key:
[1] = test system: CLL cells (leukemic lymphocytes, MNCs); experiment: Mitochondrial membrane potential (CMXRos / anti-glycophorin A-FITC, flow cytometry); type: cell-based, human; settings: for mean percentage of cells with lower mitochondrial potential (ΔΨm^low/Gly-A^−): 1.6 μM
Excerpt: Mitochondrial membrane potential is an early indicator of apoptosis. CMXRos, i.e. Chloromethyl-X-rosamine (the reagent's name by Mito Tracker Red CMXRos, Molecular Probes, USA), and a monoclonal antibody to glycophorin A conjugated with FITC (the reagent's name of Anti-Glycophorin A FITC by Dako, Denmark) were used for its assessment. CMXRos is a lipophilic cationic dye that accumulates in the mitochondrial matrix of viable cells when there is an electronegative load on the inner surface of the mitochondrial membrane. This asymmetric location of protons along the inner mitochondrial membrane leads to a high mitochondrial membrane potential (ΔΨm) in living cells. A decreased ΔΨm is one of the first symptoms of apoptosis, and in effect lowering of the mitochondrial uptake of CMXRos.
The stock CMXRos solution was prepared by dilution of the substance supplied by the manufacturer in 94 μl. DMSO (dimethylsulphoxide), and stored at […]. Then working solution was prepared also using DMSO (1:10) and stored at 4° C. Mononuclear cells, i.e. leukemic lymphocytes, at 1×10^6 MNCs/ml concentration, were incubated with CMXRos (2.5 μl working solution in 500 μl RPMI 1640 medium) at 37° C. for 30 minutes. […] The samples were next measured using flow cytometry. The percentage of cells not bound to anti-glycophorin A-FITC (ΔΨm^low/GIy-A^− cells), with low mitochondrial potential, was calculated.
All fluorescence measurements were performed by a flow cytometer FACSCalibur (Becton Dickinson, USA) equipped with an argon laser 488nm and computer program CeliQuestPro (Becton Dickinson, USA). Each time 10 000cells were evaluated. The fluorescence was measured using standard emission filters: green—FL1 (wavelength λ=530±20 nm) and red—FL3 (λ>600 nm).

CLL cells (MEC-1) = experiment: Annexin-V / propidium iodide apoptosis test with 25%, 30%, 40%, 45% maltotriose dendrimers and FA; type: cell-based, human; settings: 1.6 μM

Nc1nc(F)nc2c1ncn2[C@@H]1O[C@H](CO)[C@@H](O)[C@@H]1O [FA, fludarabine]
mean percentage of cells with lower mitochondrial potential (ΔΨm^low/Gly-A^−) ([1]; 24 h): 52.05%
mean percentage of cells with lower mitochondrial potential (ΔΨm^low/Gly-A^−) ([1]; 48 h): 74.49%
Ann+ IP+ (late apoptosis), mean percentage of cells (CLL cells (MEC-1); 24 h): 6.51% and 10.83% and 6.50%
Ann+ IP− (early apoptosis), mean percentage of cells (CLL cells (MEC-1); 24 h): 3.82% and 3.98% and 3.77%
CAI (compensating apoptotic index) (CLL cells (MEC-1); 24 h): 1.87% and 7.35% and 4.40%
Ann− IP+ (necrosis), mean percentage of cells (CLL cells (MEC-1); 48 h): 22.82% and 15.00% and 20.27%
CAI (compensating apoptotic index) (CLL cells (MEC-1); 48 h): 6.98% and 7.80% and 12.83%

rituximab
apoptosis-inducing action (mitochondrial potential) ([1]; 10 μg/ml): apoptosis-inducing action in order of spontaneous apoptosis
